These results are taken from US9459250B2, “Use of T1R3 venus flytrap region polypeptide to screen for taste modulators” (SENOMYX, INC., priority 2003, dated 2016).

The target in one experiment is hT1R2/hT1R3 (Homo sapiens (Human), UniProt Q7RTX0+Q8TE23). Nature of the experiment: Sweet FLIPR assay, hT1R2/hT1R3-HEK293-Gα15 S-9 cells. The class given is cell-based. As to conditions: Table 5 Sweet Enhancer Amides. The protocol: Compounds were initially selected based on their activity on the hT1R2/hT1R3-HEK293-Gα15 cell line (Li, et al. vide supra). Activity was determined using an automated fluorometric imaging assay on a FLIPR instrument (Fluorometric Intensity Plate Reader, Molecular Devices, Sunnyvale, Calif.) (designated FLIPR assay). […] S-9 cells were grown for 24 hours at 37° C. S-9 cells were then loaded with the calcium dye Fluo-3AM (Molecular Probes, Eugene, Oreg.), 4 μM in a phosphate buffered saline (D-PBS) (Invitrogen, Carlsbad, Calif.), for 1 hour at room temperature. After replacement with 25 μl D-PBS, stimulation was performed in the FLIPR instrument and at room temperature by the addition of 25 μl D-PBS supplemented with different stimuli at concentrations corresponding to twice the desired final level.
For dose-responses analysis, stimuli were presented in duplicates at 10 different concentrations ranging from 60 nM to 30 μM. Activities were normalized to the response obtained with 400 mM D-fructose, a concentration that elicits maximum receptor response. Ec50s were determined using a non-linear regression algorithm (using Senomyx, Inc. software), where the Hill slope, bottom asymptotes and top asymptotes were allow to vary.

A further experiment relates to HEK293-Gα15 cells. Nature of the experiment: FLIPR assay on HEK293-Gα15 cells not expressing the human sweet receptor. The class given is cell-based. An excerpt: In order to determine the dependency of hT1R2/hT1R3 for the cell response to different stimuli, selected compounds were subjected to a similar analysis on HEK293-Gα15 cells (not expressing the human sweet receptor).

For experiment [1], the target named is T1, T1R1/T1R3 (Homo sapiens (Human), UniProt Q7RTX0+Q7RTX1). Briefly: Umami FLIPR assay, HEK-Gα15 clone I-17 inducibly expressing T1R1/T1R3. The class given is cell-based. The method, then:
A dose-dependent response curve was determined for a compound, and the compound concentration corresponding to 50% of the maximal response was derived from the curve, in one example.
Regarding umami tastants and enhancers, scores of their activities can be given as percentage of the maximum MSG intensity (%). In compound dose response, an EC50 can be calculated to reflect the potency of the compound as umami agonist.
HEK-Gα15 cells were engineered to inducibly express T1R1/T1R3 using the GeneSwitch system (Invitrogen). pGene-derived zeocin-resistant expression vectors for human T1R1 and T1R3 (plasmid SXV603 for T1R1 and SXV611 for T1R3) and a puromycin-resistant pSwitch-derived vector that carries the GeneSwitch protein (plasmid SXV628) were linearized and cotransfected into the HEK-Gα15 cell line. Zeocin-resistant and puromycin-resistant colonies were selected, expanded, induced with variable amounts of mifepristone, and tested by calcium imaging for responses to umami taste stimuli. […] After replacement with 50 μl PBS, stimulation was performed at room temperature by the addition of 50 μl PBS supplemented with different stimuli. The maximal fluorescence from four independent determinations were averaged, corrected for background fluorescence measured prior to compound addition, and normalized to the response to 0.002 mM ionomycin (CALBIOCHEM).

Experiment [2] has as its target T1, T1R1/T1R3. Nature of the experiment: Calcium imaging of HEK-Gα15 cells transiently transfected with human T1R1/T1R3. The class given is cell-based.
The target in the next experiment is mT2R5 (Mus musculus (Mouse), UniProt Q9JKT4). Nature of the experiment: Mouse bitter receptor mT2R5 transiently expressed in HEK cells. The class given is cell-based. The source says: As was the case for the T1R2/T1R3 receptor, lactisole inhibition of the T1R1/T1R3 response to umami taste stimuli was reversible following washout and restimulation.
Experiment [3] relates to endogenous muscarinic acetylcholine receptor. Nature of the experiment: Endogenous muscarinic acetylcholine receptor response in HEK cells. The class given is cell-based. Particulars: carbachol. The source says: (§1) “Detection thresholds” are defined as the lower limit of detectable tastants. The detection threshold values were averaged over four trials for three subjects. […] The activities in B, C, E and F represent the mean±SE of fold increases in fluorescence intensities for four recorded wells. The dose-responses in B, C, E and F were reproduced at least 6 times independently.

The nature of experiment [4]: Human taste detection thresholds in the presence of lactisole. The class given is in vivo. As to conditions: millimolar (1 and 2 mM) lactisole, human subjects.
Source text: as §1
The present inventors then evaluated the effect of lactisole on human umami taste.

“Also recorded” adds a separate entry of the source.

hT1R2/hT1R3, sequence (Q8TE23 other isoform, or with tags, fused parts or gaps): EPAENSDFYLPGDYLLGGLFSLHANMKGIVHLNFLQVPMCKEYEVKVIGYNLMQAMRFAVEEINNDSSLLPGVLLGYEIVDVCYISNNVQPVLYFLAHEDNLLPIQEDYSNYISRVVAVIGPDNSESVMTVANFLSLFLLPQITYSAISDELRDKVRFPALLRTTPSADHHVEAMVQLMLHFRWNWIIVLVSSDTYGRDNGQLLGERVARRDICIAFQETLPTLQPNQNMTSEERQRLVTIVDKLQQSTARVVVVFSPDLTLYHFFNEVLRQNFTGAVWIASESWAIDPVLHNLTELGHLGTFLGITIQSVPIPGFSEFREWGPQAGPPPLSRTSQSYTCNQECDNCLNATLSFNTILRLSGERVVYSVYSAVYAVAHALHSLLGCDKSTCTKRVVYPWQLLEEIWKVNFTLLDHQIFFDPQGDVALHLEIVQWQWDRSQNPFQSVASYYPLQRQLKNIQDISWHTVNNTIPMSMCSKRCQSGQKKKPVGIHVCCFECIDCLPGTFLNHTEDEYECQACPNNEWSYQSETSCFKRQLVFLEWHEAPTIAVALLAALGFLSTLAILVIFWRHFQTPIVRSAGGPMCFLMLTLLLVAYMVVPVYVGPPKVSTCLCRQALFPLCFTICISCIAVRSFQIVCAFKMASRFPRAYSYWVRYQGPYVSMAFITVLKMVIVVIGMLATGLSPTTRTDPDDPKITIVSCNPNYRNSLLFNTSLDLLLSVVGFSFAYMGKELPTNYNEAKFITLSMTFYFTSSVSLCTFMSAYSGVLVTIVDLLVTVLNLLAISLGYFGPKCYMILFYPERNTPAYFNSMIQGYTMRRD
hT1R2/hT1R3, sequence (Q7RTX0 21-852 C757R): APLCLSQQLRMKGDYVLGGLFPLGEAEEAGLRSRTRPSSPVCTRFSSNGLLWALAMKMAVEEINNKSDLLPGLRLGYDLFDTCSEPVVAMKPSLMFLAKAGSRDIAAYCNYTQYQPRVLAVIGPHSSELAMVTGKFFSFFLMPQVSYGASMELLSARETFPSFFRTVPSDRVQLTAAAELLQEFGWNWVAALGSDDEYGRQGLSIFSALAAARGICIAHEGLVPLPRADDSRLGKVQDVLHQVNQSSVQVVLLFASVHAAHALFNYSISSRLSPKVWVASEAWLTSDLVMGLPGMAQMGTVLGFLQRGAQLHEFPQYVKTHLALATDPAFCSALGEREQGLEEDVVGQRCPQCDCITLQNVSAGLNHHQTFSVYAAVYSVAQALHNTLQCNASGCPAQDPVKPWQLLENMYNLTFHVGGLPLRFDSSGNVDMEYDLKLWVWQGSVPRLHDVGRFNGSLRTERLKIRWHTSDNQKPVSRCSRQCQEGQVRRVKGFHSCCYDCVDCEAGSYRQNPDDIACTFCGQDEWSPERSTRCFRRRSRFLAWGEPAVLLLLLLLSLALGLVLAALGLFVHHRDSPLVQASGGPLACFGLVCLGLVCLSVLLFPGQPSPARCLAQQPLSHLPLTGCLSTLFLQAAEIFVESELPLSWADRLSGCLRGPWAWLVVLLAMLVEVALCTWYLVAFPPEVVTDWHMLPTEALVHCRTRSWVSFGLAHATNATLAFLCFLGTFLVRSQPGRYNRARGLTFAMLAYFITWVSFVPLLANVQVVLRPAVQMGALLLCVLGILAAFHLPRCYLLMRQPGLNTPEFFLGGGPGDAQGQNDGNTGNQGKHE
T1 sequence (Q7RTX1 21-841): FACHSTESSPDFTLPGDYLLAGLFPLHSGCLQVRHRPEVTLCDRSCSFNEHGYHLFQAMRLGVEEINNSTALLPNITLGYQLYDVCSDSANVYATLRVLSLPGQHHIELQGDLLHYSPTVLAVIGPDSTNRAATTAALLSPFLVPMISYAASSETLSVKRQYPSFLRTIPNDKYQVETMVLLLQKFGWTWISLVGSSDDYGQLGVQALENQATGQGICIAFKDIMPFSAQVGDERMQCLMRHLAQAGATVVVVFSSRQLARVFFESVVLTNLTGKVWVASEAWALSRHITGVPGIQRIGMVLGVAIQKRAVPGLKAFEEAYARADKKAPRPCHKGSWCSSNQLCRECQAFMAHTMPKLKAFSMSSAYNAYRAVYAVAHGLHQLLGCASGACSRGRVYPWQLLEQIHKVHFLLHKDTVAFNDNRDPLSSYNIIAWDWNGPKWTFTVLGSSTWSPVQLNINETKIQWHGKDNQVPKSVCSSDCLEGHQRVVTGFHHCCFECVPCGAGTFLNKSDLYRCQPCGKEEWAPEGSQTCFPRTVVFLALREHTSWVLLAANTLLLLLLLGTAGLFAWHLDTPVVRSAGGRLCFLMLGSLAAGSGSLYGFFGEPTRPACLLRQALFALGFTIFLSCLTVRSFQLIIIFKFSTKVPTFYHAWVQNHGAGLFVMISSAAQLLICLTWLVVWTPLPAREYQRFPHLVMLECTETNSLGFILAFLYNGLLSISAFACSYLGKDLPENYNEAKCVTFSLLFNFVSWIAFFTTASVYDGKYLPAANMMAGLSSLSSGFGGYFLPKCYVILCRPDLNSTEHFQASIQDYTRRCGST
T1 sequence (Q7RTX0 21-852 C757R): as the sequence (Q7RTX0 21-852 C757R) above
mT2R5, sequence (Q9JKT4 whole entry): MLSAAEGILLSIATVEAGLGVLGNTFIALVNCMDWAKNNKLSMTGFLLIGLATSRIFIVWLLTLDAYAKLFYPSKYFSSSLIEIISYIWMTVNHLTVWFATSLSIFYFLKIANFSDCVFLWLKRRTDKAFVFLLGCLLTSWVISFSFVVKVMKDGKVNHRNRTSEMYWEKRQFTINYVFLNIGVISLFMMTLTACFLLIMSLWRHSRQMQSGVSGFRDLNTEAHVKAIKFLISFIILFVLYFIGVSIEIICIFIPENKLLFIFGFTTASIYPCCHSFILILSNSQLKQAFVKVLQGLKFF

The term EC50 denotes the concentration giving half of the maximal effect. Consider `COc1cccc2c1CCCC2NC(=O)c1cc(O)ccc1O` (stereo not drawn) [Compound E18, 2,5-dihydroxy-N-(5-methoxy-1,2,3,4-tetrahydronaphthalen-1-yl)benzamide], for which the EC50 at hT1R2/hT1R3 worked out at 3.38 µM.
Still for that read-out and setting: as for `Cc1oncc1C(=O)N[C@@H]1CCCc2ccccc21` [Compound E26, (R)-5-methyl-N-(1,2,3,4-tetrahydronaphthalen-1-yl)isoxazole-4-carboxamide], the figure is 8.09 µM.
On to `Cc1cc(C)c(C(=O)NC2CCCCCC2)c(C)c1` [Compound E49, N-cycloheptyl-2,4,6-trimethylbenzamide], for which the EC50 on hT1R2/hT1R3 stood at 1.39 µM.
Regarding `O=C(CO)[C@@H](O)[C@H](O)[C@H](O)CO` [D-Fructose, D-fructose], the “functional response in FLIPR assay” value in the experiment on HEK293-Gα15 cells is given as “do not show any functional response”.
With `N[C@@H](CCC(=O)O)C(=O)O` [L-glutamate, reference compound], the “activation of T1R1/T1R3 receptor by L-amino acids” value at T1R1/T1R3 [1] (clone I-17, with and without IMP) was “significantly activated”. Moreover, the “percentage of cells that responded” value at T1R1/T1R3 [1] (induced cells (inducible T1R1/T1R3 expression)) was “approximately 80%”; on T1R1/T1R3 [2] (transiently transfected cells), “approximately 10%”.
`N[C@@H](CCC(=O)O)C(=O)O` [glutamate]: the “maximal percentage of responding cells” value at T1R1/T1R3 [2] (glutamate alone) is “approximately 5%”; at T1R1/T1R3 [2] (glutamate plus 0.2 mM IMP), “approximately 10%”.
With `COc1ccc(OC(C)C(=O)O)cc1` (stereo not drawn) [lactisole, Lactisole], the “effect on mouse bitter receptor mT2R5” value on mT2R5 was “no effect”. In addition, the “effect on endogenous muscarinic acetylcholine receptor response” value in experiment [3] is listed as “not inhibited; also recorded: no effect”. The “detection thresholds for sweet, umami and salt taste stimuli” value in experiment [4] was “dramatically increased detection thresholds for sweet and umami but not salt taste stimuli”.
